{
  "source": "patent US9505763B2",
  "about": "“Cancer treatment using BMP inhibitor” (Vanderbilt University, priority 2011, dated 2016)",
  "key": {"TGFβ receptor alk5": {"target": "T1, TGFβ receptor alk5 (Homo sapiens, UniProt P36897)", "T1 sequence (P36897 34-503)": "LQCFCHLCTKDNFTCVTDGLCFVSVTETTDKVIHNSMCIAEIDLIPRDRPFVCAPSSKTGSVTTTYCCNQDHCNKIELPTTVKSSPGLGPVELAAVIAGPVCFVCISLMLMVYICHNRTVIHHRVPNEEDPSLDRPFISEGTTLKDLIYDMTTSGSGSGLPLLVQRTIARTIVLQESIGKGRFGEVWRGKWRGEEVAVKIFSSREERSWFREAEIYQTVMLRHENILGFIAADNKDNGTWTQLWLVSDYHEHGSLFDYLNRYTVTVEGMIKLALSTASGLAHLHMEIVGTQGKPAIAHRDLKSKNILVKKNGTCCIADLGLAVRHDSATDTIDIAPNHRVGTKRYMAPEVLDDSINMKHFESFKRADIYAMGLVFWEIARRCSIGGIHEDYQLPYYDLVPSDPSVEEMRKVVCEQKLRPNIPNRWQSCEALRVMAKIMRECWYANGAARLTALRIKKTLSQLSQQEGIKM", "settings": "compared with Dorsomorphin and LDN; cited from earlier work"}, "alk2": {"target": "T2, alk2 (Mus musculus, UniProt P37172)", "T2 construct": "host or cells: C2C12", "T2 sequence (P37172 21-509)": "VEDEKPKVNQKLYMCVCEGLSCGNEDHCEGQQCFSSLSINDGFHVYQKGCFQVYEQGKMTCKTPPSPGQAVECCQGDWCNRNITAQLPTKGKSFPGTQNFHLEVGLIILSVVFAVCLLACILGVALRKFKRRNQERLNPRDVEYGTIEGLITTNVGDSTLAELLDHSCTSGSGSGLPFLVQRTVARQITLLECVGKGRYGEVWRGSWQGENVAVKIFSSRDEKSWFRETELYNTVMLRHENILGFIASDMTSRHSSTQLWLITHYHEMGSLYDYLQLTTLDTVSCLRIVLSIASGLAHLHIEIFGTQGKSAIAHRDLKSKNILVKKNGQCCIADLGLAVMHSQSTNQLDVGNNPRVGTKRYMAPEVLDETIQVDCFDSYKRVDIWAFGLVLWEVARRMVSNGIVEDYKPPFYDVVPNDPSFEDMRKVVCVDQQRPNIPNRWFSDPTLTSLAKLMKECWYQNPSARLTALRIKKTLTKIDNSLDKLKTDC", "settings": "reported [26]; cited from earlier work"}, "[1]": {"test_system": "phosphorylated Smad 1/5/8", "assay": "Western blot for phosphorylated Smad 1/5/8", "type": "cell-based", "procedure": "(§1) Western Blot Analysis. Total cellular protein was prepared using RIPA buffer containing a protease inhibitor cocktail and protein concentration was measured using the BCA assay as described. In brief, protein was analyzed by SDS-PAGE, transferred to nitrocellulose (Schleicher and Schuell, Keene, N.H.). After blocking, the blots were incubated overnight at 4° C. with the appropriate primary antibody in Tris-buffered saline with 1% Tween (TBST) and 5% non-fat milk. Secondary antibodies were applied for 1 hour at room temperature. Specific proteins were detected using the enhanced chemiluminescence system (Amersham, Arlington Heights, Ill.). The primary antibodies that were used were rabbit monoclonal anti-pSmad 1/5/8 (Cell signaling Technology, Danvers Mass.) rabbit anti-actin, an affinity isolated antigen specific antibody (Sigma, Saint Louis, Mo.), rabbit monoclonal anti-Id1 and rabbit monoclonal anti-Id3 (Calbioreagents, San Mateo, Calif.)."}, "H1299 cells": {"test_system": "H1299 cells", "assay": "BrdU incorporation assay", "type": "cell-based", "settings": "1 μM or 5 μM", "procedure": "BrdU Assay. Thirty-thousand H1299 cells were plated into 96 well plates. The next day the cells were treated with 1 μM DMSO, 5 μM DMSO, 1 μM DMH2, or 5 μM DMH2 for 24 and 48 hours. BrdU incorporation was measured using the Cell Proliferation ELISA, BrdU colorimetric kit as per manufacture's instruction (Roche, Indianapolis, […]). Cells were incubated with BrdU labeling solution for 2 hours, fixed/denatured, and BrdU located with a peroxidase-conjugated anti-BrdU antibody. Knockdown of all type I BMP receptors were performed in the H1299 cells by transfecting siRNA for alk2, alk3, and alk6 or control siRNA. Three days after transfection BrdU incorporation was determined. Studies were performed 4 times in triplicate."}, "Id1 and Id3 protein": {"test_system": "Id1 and Id3 protein", "assay": "Western blot for Id1 and Id3", "type": "cell-based", "procedure": "as §1"}, "[2]": {"target": "T3, constitutively active alk3 (ca-alk3) (Homo sapiens, UniProt P36894, Q233D)", "T3 construct": "expressed in transfected cells; host or cells: H1299", "T3 sequence (P36894 24-532 Q233D)": "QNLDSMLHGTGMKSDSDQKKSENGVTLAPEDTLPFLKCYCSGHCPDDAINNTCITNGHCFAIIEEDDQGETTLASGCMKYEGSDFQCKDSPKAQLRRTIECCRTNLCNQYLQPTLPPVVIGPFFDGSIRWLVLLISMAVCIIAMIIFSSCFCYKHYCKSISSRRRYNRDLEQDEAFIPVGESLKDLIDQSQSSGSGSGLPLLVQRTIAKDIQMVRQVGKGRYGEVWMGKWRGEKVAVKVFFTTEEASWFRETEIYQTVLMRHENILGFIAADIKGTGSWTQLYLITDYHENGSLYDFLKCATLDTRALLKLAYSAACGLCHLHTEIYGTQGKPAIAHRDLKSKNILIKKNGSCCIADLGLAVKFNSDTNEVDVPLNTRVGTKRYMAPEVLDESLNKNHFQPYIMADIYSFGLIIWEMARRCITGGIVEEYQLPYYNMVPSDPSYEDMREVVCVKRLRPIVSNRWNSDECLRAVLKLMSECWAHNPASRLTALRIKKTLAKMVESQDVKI", "assay": "BRE-luciferase with constitutively active alk3 in H1299 cells", "type": "cell-based", "settings": "1 μM antagonist", "procedure": "To assess the effects of antagonists on a specific type I BMP receptor, 2 μg of constitutively active ca-alk3 and ca-alk6 expression vectors were co-transfected with the BRE-luciferase reporter into H1299 cells with Nucleofector II. Control cells were co-transfected with the pcDNA3 expression vector. After 48 hours the cells were treated with DMSO or a BMP receptor antagonist for 48 hours and luminescence was measured."}, "[3]": {"test_system": "Id1, Id2, and Id3 expression", "assay": "Quantitative RT-PCR for Id family members", "type": "cell-based", "settings": "A549 and H1299 cell lines; 10 μM Dorsomorphin, 1 μM DMH1 or DMH2; 48 hours", "procedure": "Quantification of Gene Expression. RNA was extracted using the RNeasy kit as per the manufacturer's instructions (Qiagen, Valencia, Calif.). DNAase was used to remove any DNA contamination. cDNA was generated using Advantage RT for PCR kit (BD BiosciencesClontech, Palo Alto, Calif.). Quantitative PCR was performed with the Stratagene Mx3005p (Agilent Technologies) and predesigned validated Taq-Man gene expression assays according to the manufacturer's specifications (Applied Biosystems, Foster City, Calif.). Reference numbers used are: GAPDH (Hs99999905_m1), ACVRL1 (alk1) (Hs00163543_m1), ACVR1A (alk2) (Hs00153836_m1), BMR1A (alk3) (Hs00831730_s1), BMPR1B (alk6) (Hs00176144_m1), Id1 (Hs00357821_g1), Id2 (Hs00747379_m1), and Id3 (Hs00171409-m1). Negative control included all reagents except cDNA. Expression was normalized to GAPDH using the formula […]."}, "Smad 1/5/8 activity": {"test_system": "Smad 1/5/8 activity", "assay": "BRE-luciferase reporter assay", "type": "cell-based", "settings": "H1299 cells; 10 μM Dorsomorphin or 1 μM DMH1, DMH2, LDN; 48 hours; vs DMSO", "procedure": "Luciferase Assays. 10^6 H1299 cells were transfected with 2 μg of BRE-luciferace plasmid using a Nucleofector II. […] Cells were lysed with luciferase lysis buffer (Promega). Samples were added to luciferase assay substrate (Promega) and luminsescence measured by the TD-20/20 Luminometer (Turner Designs/Turner BioSystems, Sunnyvale, Calif.). Control samples included luciferase assay substrate alone and luciferase assay substrate plus 1× reporter lysis buffer."}, "VEGF II": {"target": "VEGF II (Homo sapiens, UniProt P35968)", "sequence (P35968 20-1356)": "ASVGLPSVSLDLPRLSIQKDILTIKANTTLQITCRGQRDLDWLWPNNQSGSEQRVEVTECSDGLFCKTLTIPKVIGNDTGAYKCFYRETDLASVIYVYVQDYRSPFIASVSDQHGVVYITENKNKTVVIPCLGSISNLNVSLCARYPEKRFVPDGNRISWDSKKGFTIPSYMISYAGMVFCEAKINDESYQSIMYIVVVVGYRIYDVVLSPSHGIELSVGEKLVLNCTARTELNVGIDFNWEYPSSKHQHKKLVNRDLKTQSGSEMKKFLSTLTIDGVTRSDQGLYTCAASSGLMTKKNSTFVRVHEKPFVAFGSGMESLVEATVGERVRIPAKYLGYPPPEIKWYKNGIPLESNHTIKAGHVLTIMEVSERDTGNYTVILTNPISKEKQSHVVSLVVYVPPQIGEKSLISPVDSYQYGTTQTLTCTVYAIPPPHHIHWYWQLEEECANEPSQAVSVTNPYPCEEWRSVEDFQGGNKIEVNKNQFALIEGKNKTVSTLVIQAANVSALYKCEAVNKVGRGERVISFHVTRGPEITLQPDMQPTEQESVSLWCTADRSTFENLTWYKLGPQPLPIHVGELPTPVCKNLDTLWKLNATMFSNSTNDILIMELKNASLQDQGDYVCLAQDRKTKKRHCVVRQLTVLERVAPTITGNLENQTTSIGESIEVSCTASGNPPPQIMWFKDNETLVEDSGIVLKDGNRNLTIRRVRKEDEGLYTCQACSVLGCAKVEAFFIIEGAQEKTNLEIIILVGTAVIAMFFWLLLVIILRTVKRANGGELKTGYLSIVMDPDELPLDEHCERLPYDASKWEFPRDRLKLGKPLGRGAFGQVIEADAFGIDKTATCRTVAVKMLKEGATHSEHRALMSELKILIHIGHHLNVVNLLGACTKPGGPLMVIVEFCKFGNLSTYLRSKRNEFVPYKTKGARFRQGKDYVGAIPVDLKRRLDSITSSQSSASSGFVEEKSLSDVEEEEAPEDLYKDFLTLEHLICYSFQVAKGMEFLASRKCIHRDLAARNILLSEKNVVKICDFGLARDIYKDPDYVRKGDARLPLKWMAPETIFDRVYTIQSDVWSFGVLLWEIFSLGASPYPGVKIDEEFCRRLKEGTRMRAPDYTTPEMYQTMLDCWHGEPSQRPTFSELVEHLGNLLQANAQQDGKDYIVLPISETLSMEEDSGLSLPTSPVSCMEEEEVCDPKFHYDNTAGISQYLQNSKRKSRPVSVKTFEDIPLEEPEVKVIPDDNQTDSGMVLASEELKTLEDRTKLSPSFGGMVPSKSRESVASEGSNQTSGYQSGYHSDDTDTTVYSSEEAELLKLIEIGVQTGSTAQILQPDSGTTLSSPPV", "settings": "compared with Dorsomorphin and LDN; cited from earlier work"}},
  "note": "“Also recorded” adds a separate entry of the source.",
  "data": [
    {"smiles": "CN(C)CCCOc1ccc(-c2cnc3c(-c4ccnc5ccccc45)cnn3c2)cc1", "note": "[DMH2]", "values": [
      {"measurement": "activity for TGFβ receptor alk5 (comparison)", "setting": "TGFβ receptor alk5", "value": "less activity"},
      {"measurement": "inhibition of alk2 activity", "setting": "alk2", "value": "inhibit"},
      {"measurement": "phosphorylated Smad 1/5/8 expression", "setting": "[1]; A549 cells", "value": "decreases"},
      {"measurement": "level of phosphorylated Smad 1/5/8 expression", "setting": "[1]; lung cancer cell lines (H1299, A549)", "value": "decreased"},
      {"measurement": "proliferation (BrdU incorporation)", "setting": "H1299 cells; 24 hours", "value": "dose dependent decrease in proliferation"},
      {"measurement": "proliferation (BrdU incorporation)", "setting": "H1299 cells; 48 hours", "value": "more profound effect"},
      {"measurement": "protein levels of Id1 and Id3", "setting": "Id1 and Id3 protein; A549 and H1299 cells", "value": "decrease"},
      {"measurement": "reduction of Id1 protein expression (comparison)", "setting": "Id1 and Id3 protein; H1299 and A549 cells, 1 μM", "value": "greater reduction of Id1 in H1299 cells compared to A549 cells; also recorded: greater reduction of Id1 protein expression than DMH1"},
      {"measurement": "inhibition of ca-alk3 activity (BRE-luciferase)", "setting": "[2]", "value": "greater reduction of alk3 activity than DMH1 and LDN; also recorded: significant inhibition"},
      {"measurement": "Id1, Id2, and Id3 expression (mRNA)", "setting": "[3]", "value": "significantly decreased"},
      {"measurement": "Smad 1/5/8 activity (BRE-luciferase activity)", "setting": "Smad 1/5/8 activity", "value": "significant decrease"},
      {"measurement": "activity for VEGF II (comparison)", "setting": "VEGF II", "value": "less activity"}
    ]}
  ]
}
